The source made the active and inactive calls.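 Rule for the calls: active = IC50 of 10 µM or lower; inactive = IC50 above 10 µM.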
Target: Mitogen-activated protein kinase kinase kinase 5 (Homo sapiens) (UniProt Q99683)
Assay: MAP3K5 inhibition concentration-response curves – biochemical, AlphaScreen, MKK6 phosphorylation, dose response (AID 1159605);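 note: ASK1 phosphorylation of MKK6 substrate detected with anti-phospho-MKK6 antibody beads; inhibitors lower the luminescent signal by blocking MKK6 phosphorylation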
Settings: ASK1 MKK6 phosphorylation, AlphaScreen luminescence

Mitogen-activated protein kinase kinase kinase 5 (Homo sapiens), sequence (Q99683 whole entry, looked up): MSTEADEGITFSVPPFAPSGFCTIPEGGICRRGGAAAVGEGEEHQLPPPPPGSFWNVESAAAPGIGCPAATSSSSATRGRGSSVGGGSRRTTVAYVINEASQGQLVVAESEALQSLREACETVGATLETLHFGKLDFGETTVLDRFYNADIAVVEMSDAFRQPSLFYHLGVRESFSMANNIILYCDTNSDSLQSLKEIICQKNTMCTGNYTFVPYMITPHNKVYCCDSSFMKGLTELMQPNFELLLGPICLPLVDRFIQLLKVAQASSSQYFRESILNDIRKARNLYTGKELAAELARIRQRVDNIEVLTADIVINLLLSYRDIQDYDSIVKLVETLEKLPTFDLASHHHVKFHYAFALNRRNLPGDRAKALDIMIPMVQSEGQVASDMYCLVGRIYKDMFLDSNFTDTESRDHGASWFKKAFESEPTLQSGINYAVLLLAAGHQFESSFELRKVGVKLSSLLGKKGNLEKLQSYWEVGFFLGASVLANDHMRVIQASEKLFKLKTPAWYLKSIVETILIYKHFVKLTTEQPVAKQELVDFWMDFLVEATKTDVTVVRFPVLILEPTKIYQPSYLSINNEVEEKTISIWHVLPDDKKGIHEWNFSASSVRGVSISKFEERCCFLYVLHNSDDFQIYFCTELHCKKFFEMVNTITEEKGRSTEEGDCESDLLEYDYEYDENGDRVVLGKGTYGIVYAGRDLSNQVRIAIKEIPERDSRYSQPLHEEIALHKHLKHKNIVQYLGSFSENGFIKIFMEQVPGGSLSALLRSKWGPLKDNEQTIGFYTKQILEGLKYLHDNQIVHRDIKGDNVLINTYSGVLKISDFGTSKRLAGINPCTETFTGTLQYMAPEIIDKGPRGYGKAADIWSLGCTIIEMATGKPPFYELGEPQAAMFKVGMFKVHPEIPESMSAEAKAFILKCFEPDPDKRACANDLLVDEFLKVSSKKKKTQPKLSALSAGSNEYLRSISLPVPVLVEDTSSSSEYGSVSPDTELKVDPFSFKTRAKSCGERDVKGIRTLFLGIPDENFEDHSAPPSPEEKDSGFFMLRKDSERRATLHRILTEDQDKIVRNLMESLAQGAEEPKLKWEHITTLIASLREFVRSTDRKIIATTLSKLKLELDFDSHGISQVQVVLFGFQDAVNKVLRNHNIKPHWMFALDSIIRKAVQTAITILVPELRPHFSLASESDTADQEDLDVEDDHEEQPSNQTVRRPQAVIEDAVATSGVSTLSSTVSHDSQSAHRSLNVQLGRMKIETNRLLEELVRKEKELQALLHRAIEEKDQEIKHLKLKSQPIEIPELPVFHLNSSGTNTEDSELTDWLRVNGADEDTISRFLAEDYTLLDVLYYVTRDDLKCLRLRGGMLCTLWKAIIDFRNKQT

SMILES	IC50
Cc1cc(NCc2cccc(C(F)(F)F)c2)nc(Nc2ccc(N3CCOCC3)cc2)n1	6.57 µM
Cc1cc(NC2CCN(Cc3ccccc3)CC2)nc(Nc2cccc(N(C)C)c2)n1	> 21.2 µM (inactive)
COc1cc2nc(Nc3ccc(N4CCOCC4)cc3)nc(NC3CC3)c2cc1OC	inactive
Cc1cnc(Nc2nc3ccccc3n2C)nc1Nc1ccc(N2CCOCC2)cc1	> 21.8 µM (inactive)
c1ccc(Nc2cc(-c3ccnc(Nc4ccc(N5CCOCC5)cc4)c3)nn2-c2ccccc2)cc1	> 19.2 µM (inactive)
Cc1ccc(-c2ncn(-c3ccc(Nc4nccc(-c5cncc6ccccc56)n4)cc3)n2)cn1	> 19.2 µM (inactive)
c1cc(-n2cnc3c(Nc4ccc5c(c4)OCO5)nc(Nc4ccc(N5CCOCC5)cc4)nc32)cs1	5.72 µM
COc1cc2nc(Nc3nc4ccccc4n3C)nc(Nc3ccc(N4CCOCC4)cc3)c2cc1OC	8.95 µM
Cc1nc(C)n(-c2ccc(Nc3nccc(-c4cc(F)cc(-c5ncco5)c4)n3)cc2)n1	> 19.2 µM (inactive)
FC(F)(F)c1ccc(Cn2cnc3c(NCc4ccccc4)nc(Nc4ccccc4)nc32)cc1	> 20.1 µM (inactive)
FC(F)(F)c1cc(-c2ccnc(Nc3ccc(N4CCOCC4)cc3)n2)cc(N2CCOCC2)c1	> 19.2 µM (inactive)
CN(C)c1cccc(Nc2nc(Nc3ccc4c(c3)OCO4)c3ncn(Cc4ccc(C(F)(F)F)cc4)c3n2)c1	inactive
Cc1cnc(Nc2ccc(N3CCOCC3)cc2)nc1NCc1cccc(C(F)(F)F)c1	8.86 µM
COc1cc2nc(NC3CCN(Cc4ccccc4)CC3)nc(Nc3ccc(N4CCOCC4)cc3)c2cc1OC	inactive
CN1CCN(c2ncn(-c3ccc(Nc4nccc(-c5cc(C#N)cc(N6CCC(O)CC6)c5)n4)cc3)n2)CC1	> 19.2 µM (inactive)
Cc1ccc(-c2ncn(-c3ccc(Nc4nccc(-c5cncc(N6CCOCC6)c5)n4)cc3)n2)cn1	> 19.2 µM (inactive)
c1ccc(CN2CCC(Nc3nc(Nc4ccc(N5CCOCC5)cc4)nc4c3ncn4C3CCCCC3)CC2)cc1	7.91 µM

SMILES	IC50
FC(F)(F)c1ccc(Cn2cnc3c(NC4CCN(Cc5ccccc5)CC4)nc(Nc4ccc(N5CCOCC5)cc4)nc32)cc1	inactive
Fc1cc(-c2ccnc(Nc3ccc(N4CCOCC4)cc3)n2)cc(N2CCN(C3CC3)CC2)c1	> 19.2 µM (inactive)
CC(C)n1cnc2c(Nc3ccc4c(c3)OCO4)nc(Nc3cccc(N(C)C)c3)nc21	> 19.9 µM (inactive)
COc1ccc(CCNc2nc(NC3CCN(Cc4ccccc4)CC3)nc3c2ncn3C2CCCCC2)cc1	inactive
CN(C)c1cccc(Nc2nccc(NCCOc3ccccc3)n2)c1	inactive
COc1ccc(-c2nc3ncnc(Nc4cc(OC)c(OC)c(OC)c4)c3[nH]2)cn1	> 18.1 µM (inactive)
COc1ccc(CCNc2ccnc(Nc3cccc(N(C)C)c3)n2)cc1	7.76 µM
O=C1CCCN1CCCNc1nc(Nc2ccc(-n3ccnc3)cc2)nc2c1ncn2-c1ccsc1	> 19.9 µM (inactive)
O=C(Nc1ccccc1)c1ccccc1Nc1ccnc(Nc2ccc(N3CCOCC3)cc2)c1	> 19.2 µM (inactive)
CCN(CC)c1nc(Nc2ccc(N3CCOCC3)cc2)nc(N2CCN(Cc3ccc4c(c3)OCO4)CC2)n1	8.17 µM
Cc1cc(Nc2ccc(N3CCOCC3)cc2)nc(Nc2cccc(N(C)C)c2)n1	> 19.9 µM (inactive)
COc1cc2nc(Nc3cccc(N(C)C)c3)nc(NC3CC3)c2cc1OC	inactive
c1ccc(OCCNc2nc(Nc3ccc(N4CCOCC4)cc3)nc3c2ncn3C2CCCCC2)cc1	5.66 µM
Oc1ccc(CCNc2ncnc3nc(N4CCN(Cc5ccc6c(c5)OCO6)CC4)[nH]c23)cc1	> 16.9 µM (inactive)
COc1cc2nc(Nc3ccccc3)nc(Nc3ccc(N4CCOCC4)cc3)c2cc1OC	> 24 µM (inactive)
COc1ccc2c(c1)CC(C(=O)Nc1ccc(-c3cn[nH]c3)cc1OCCN(Cc1ccccc1)Cc1ccccc1)CO2 (stereo not drawn)	> 19.2 µM (inactive)
